Data from patent US9567302B2, “Carbamate compounds and of making and using same” (Abide Therapeutics, Inc., priority 2012, dated 2017).

Legend:
Assay type in all cases: biochemical
Parameters in all cases: from tissue
[1] = target: T1, MAGL (Mus musculus, UniProt O35678); assay: In vitro competitive ABPP, % inhibition at fixed concentration, MAGL
T1 sequence (O35678 1-303): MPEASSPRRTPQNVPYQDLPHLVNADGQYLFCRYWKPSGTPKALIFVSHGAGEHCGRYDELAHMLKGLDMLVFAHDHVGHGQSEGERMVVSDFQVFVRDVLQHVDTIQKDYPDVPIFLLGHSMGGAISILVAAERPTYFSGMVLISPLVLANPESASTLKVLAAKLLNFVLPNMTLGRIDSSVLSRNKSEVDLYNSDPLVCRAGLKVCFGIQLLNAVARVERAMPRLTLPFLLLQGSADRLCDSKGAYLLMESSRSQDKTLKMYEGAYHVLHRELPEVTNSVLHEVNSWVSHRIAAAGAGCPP
In short: (§1)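 Mouse brain membrane proteome or cell lysate at 1.0 mg/ml was preincubated with inhibitor for 30 min at 37° C, then labelled with FP-Rh for another 30 min. After SDS-PAGE, activity was quantified from the fluorescent intensity of the MAGL, ABHD6 and FAAH bands.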

[2] = target: T2, FAAH (Mus musculus, UniProt O08914); assay: In vitro competitive ABPP, % inhibition at fixed concentration, FAAH
T2 sequence (O08914 1-579): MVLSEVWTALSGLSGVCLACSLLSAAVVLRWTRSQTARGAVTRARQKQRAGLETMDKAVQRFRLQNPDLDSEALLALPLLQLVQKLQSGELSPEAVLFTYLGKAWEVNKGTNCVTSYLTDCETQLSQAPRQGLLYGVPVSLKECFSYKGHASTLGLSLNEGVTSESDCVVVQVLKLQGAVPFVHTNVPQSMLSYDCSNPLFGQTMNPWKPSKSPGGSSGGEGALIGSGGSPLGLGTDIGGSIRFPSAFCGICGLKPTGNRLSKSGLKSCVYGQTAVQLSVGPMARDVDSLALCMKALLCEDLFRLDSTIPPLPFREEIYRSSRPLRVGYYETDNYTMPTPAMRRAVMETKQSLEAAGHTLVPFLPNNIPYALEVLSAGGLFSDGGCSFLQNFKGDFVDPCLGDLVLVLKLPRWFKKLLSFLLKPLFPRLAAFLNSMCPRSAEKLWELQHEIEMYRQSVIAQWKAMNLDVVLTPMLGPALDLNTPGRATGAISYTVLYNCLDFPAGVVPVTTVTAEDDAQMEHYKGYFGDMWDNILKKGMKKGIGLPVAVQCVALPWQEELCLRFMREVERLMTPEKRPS
In short: as §1

[3] = target: T3, ABHD6 (Mus musculus, UniProt Q8R2Y0); assay: In vitro competitive ABPP, % inhibition at fixed concentration, ABHD6
T3 sequence (Q8R2Y0 1-336): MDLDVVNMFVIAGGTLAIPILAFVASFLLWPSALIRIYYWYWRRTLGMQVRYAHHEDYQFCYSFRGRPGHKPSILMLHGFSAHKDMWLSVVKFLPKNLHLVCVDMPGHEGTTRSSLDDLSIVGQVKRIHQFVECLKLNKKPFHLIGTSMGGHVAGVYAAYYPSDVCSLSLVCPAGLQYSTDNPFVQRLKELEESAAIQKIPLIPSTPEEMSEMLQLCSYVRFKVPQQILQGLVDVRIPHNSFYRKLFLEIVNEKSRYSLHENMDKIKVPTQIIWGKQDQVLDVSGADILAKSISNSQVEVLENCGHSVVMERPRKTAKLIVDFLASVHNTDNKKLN
In short: as §1

inhibition at 1 µM [1] [%]	inhibition at 1 µM [2] [%]	inhibition at 1 µM [3] [%]	inhibition at 10 µM [1] [%]	inhibition at 10 µM [2] [%]	inhibition at 10 µM [3] [%]	Structure (SMILES)
25 to 75	< 25	< 25				O=C(ON1C(=O)CCC1=O)N1CCN(Cc2ccc(Cl)cc2C(=O)N2CCCC2)CC1 [Example 196, 2,5-Dioxopyrrolidin-1-yl 4-{[4-chloro-2-(pyrrolidine-1-carbonyl)phenyl]methyl}piperazine-1-carboxylate]
< 25	< 25	< 25				O=C(ON1C(=O)CCC1=O)N1CCN(Cc2ccc(Cl)cc2C(=O)N2CCC2)CC1 [Example 197, 2,5-Dioxopyrrolidin-1-yl 4-{[2-(azetidine-1-carbonyl)-4-chlorophenyl]methyl}piperazine-1-carboxylate]
< 25	< 25	< 25				O=C(ON1C(=O)CCC1=O)N1CCN(Cc2cccc(Cl)c2C(=O)N2CCOCC2)CC1 [Example 198, 2,5-Dioxopyrrolidin-1-yl 4-{[3-chloro-2-(morpholine-4-carbonyl)phenyl]methyl}piperazine-1-carboxylate]
< 25	< 25	25 to 75				O=C(ON1C(=O)CCC1=O)N1CCN(Cc2cc(Cl)ccc2C(=O)N2CCOCC2)CC1 [Example 199, 2,5-Dioxopyrrolidin-1-yl 4-{[5-chloro-2-(morpholine-4-carbonyl)phenyl]methyl}piperazine-1-carboxylate]
< 25	< 25	< 25				O=C(ON1C(=O)CCC1=O)N1CCN(Cc2cc(Cl)ccc2C(=O)N2CCCC2)CC1 [Example 200, 2,5-Dioxopyrrolidin-1-yl 4-{[5-chloro-2-(pyrrolidine-1-carbonyl)phenyl]methyl}piperazine-1-carboxylate]
< 25	< 25	< 25				Cc1ccc(C(=O)N2CCOCC2)c(CN2CCN(C(=O)ON3C(=O)CCC3=O)CC2)c1 [Example 201, 2,5-Dioxopyrrolidin-1-yl 4-{[5-methyl-2-(morpholine-4-carbonyl)phenyl]methyl}piperazine-1-carboxylate]
< 25	< 25	< 25				Cc1ccc(C(=O)N2CCCC2)c(CN2CCN(C(=O)ON3C(=O)CCC3=O)CC2)c1 [Example 202, 2,5-Dioxopyrrolidin-1-yl 4-{[5-methyl-2-(pyrrolidine-1-carbonyl)phenyl]methyl}piperazine-1-carboxylate]
< 25	< 25	< 25				O=C(ON1C(=O)CCC1=O)N1CCN(Cc2cc(C(F)(F)F)ccc2C(=O)N2CCOCC2)CC1 [Example 203, 2,5-Dioxopyrrolidin-1-yl 4-{[2-(morpholine-4-carbonyl)-5-(trifluoromethyl)phenyl]methyl}piperazine-1-carboxylate]
< 25	< 25	< 25				O=C(ON1C(=O)CCC1=O)N1CCN(Cc2cc(C(F)(F)F)ccc2C(=O)N2CCCC2)CC1 [Example 204, 2,5-Dioxopyrrolidin-1-yl 4-{[2-(pyrrolidine-1-carbonyl)-5-(trifluoromethyl)phenyl]methyl}piperazine-1-carboxylate]
< 25	< 25	> 75				Cc1c(CN2CCN(C(=O)ON3C(=O)CCC3=O)CC2)cccc1C(=O)N1CCOCC1 [Example 205, 2,5-Dioxopyrrolidin-1-yl 4-{[2-methyl-3-(morpholine-4-carbonyl)phenyl]methyl}piperazine-1-carboxylate]
25 to 75	< 25	> 75				Cc1c(CN2CCN(C(=O)ON3C(=O)CCC3=O)CC2)cccc1C(=O)N1CCCC1 [Example 206, 2,5-Dioxopyrrolidin-1-yl 4-{[2-methyl-3-(pyrrolidine-1-carbonyl)phenyl]methyl}piperazine-1-carboxylate]
25 to 75	< 25	> 75				Cc1c(CN2CCN(C(=O)ON3C(=O)CCC3=O)CC2)cccc1C(=O)N1CCC1 [Example 207, 2,5-Dioxopyrrolidin-1-yl 4-{[3-(azetidine-1-carbonyl)-2-methylphenyl]methyl}piperazine-1-carboxylate]
< 25	< 25	< 25				Cc1cc(CN2CCN(C(=O)ON3C(=O)CCC3=O)CC2)cc(C(=O)N2CCOCC2)c1 [Example 208, 2,5-Dioxopyrrolidin-1-yl 4-{[3-methyl-5-(morpholine-4-carbonyl)phenyl]methyl}piperazine-1-carboxylate]
< 25	< 25	< 25				O=C(ON1C(=O)CCC1=O)N1CCN(Cc2ccc(Cl)c(C(=O)N3CCOCC3)c2)CC1 [Example 209, 2,5-Dioxopyrrolidin-1-yl 4-{[4-chloro-3-(morpholine-4-carbonyl)phenyl]methyl}piperazine-1-carboxylate]
< 25	< 25	25 to 75				O=C(ON1C(=O)CCC1=O)N1CCN(Cc2ccc(Cl)c(C(=O)N3CCC3)c2)CC1 [Example 210, 2,5-Dioxopyrrolidin-1-yl 4-{[3-(azetidine-1-carbonyl)-4-chlorophenyl]methyl}piperazine-1-carboxylate]
			25 to 75	< 25	25 to 75	O=C(ON1C(=O)CCC1=O)N1CCN(C(=O)c2cccc(Cl)c2)CC1 [Example 211, 2,5-Dioxopyrrolidin-1-yl 4-(3-chlorobenzoyl)piperazine-1-carboxylate]
			25 to 75	< 25	< 25	O=C(ON1C(=O)CCC1=O)N1CCN(C(=O)c2ccccc2)CC1 [Example 212, 2,5-Dioxopyrrolidin-1-yl 4-benzoylpiperazine-1-carboxylate]
			< 25	< 25	< 25	O=C(CN1CCCCC1)N1CCN(C(=O)ON2C(=O)CCC2=O)CC1 [Example 213, 2,5-Dioxopyrrolidin-1-yl 4-[2-(piperidin-1-yl)acetyl]piperazine-1-carboxylate]
			< 25	< 25	< 25	O=C(CN1CCCC1)N1CCN(C(=O)ON2C(=O)CCC2=O)CC1 [Example 214, 2,5-Dioxopyrrolidin-1-yl 4-[2-(pyrrolidin-1-yl)acetyl]piperazine-1-carboxylate]
			< 25	< 25	< 25	O=C(CN1CCOCC1)N1CCN(C(=O)ON2C(=O)CCC2=O)CC1 [Example 215, 2,5-Dioxopyrrolidin-1-yl 4-[2-(morpholin-4-yl)acetyl]piperazine-1-carboxylate]
			< 25	< 25	< 25	O=C(CN1CCC1)N1CCN(C(=O)ON2C(=O)CCC2=O)CC1 [Example 216, 2,5-Dioxopyrrolidin-1-yl 4-[2-(azetidin-1-yl)acetyl]piperazine-1-carboxylate]
			< 25	< 25	< 25	O=C(ON1C(=O)CCC1=O)N1CCC(N2CCCC2)CC1 [Example 217, 2,5-Dioxopyrrolidin-1-yl 4-(pyrrolidin-1-yl)piperidine-1-carboxylate]
			< 25	< 25	< 25	O=C(ON1C(=O)CCC1=O)N1CCC(N2CCCCC2)CC1 [Example 218, 2,5-Dioxopyrrolidin-1-yl 4-(piperidine-1-yl)piperidine-1-carboxylate]
			< 25	< 25	25 to 75	O=C(ON1C(=O)CCC1=O)N1CCC(N2CCCC2=O)CC1 [Example 219, 2,5-Dioxopyrrolidin-1-yl 4-(2-oxopyrrolidin-1-yl)piperidine-1-carboxylate]
